Data taken from PubChem BioAssay AID2060612 (Molecular Pharmacology Branch, DTP, NCI, 2025).

System: 565232-114-T-J1-PDC complex spheroid viability
Assay: Anticancer human tumor 565232-114-T-J1-PDC patient-derived bladder carcinoma cell line growth inhibition [CLK]
Settings: for IC50: curve of first compound; for viability, T/C: stronger effect = lower value
Excerpt: A high-throughput screen of multi-cell type tumor spheroids was designed to identify active combinations of […] and targeted small molecules. Complex spheroids include a stromal component modeled by human endothelial cells (HUVEC) and fibroblasts modeled by human mesenchymal stem cells (MSCs). The concentration ranges selected for each drug and investigational agent were based upon clinically achievable concentrations if the clinical Cmax of the agent was known.
Compounds. The drugs and investigational agents: cirtuvivint (SM08502; NSC835563), CC-671 (NSC850746), vemurafenib (NSC761431), tapotoclax (NSC804041), sotorasib (NSC818433), adagrasib (NSC831453), MRTX-1133 (NSC836407), BAY2416964 (NSC825713), copanlisib (NSC816437), inavolisib (NSC800729), abemaciclib (NSC768073), osimertinib (NSC779217), entinostat (NSC756642), eltanexor (KPT-8602, NSC794443), venetoclax (NSC766270), ceralasertib (NSC777638), bortezomib (NSC756655), olaparib (NSC753686), talazoparib (NSC767125), alisertib (NSC759677), peposertib (NSC802822), gemcitabine (NSC613327), 5-fluorouracil (NSC19893), SN-38 (NSC673596), oxaliplatin (NSC266046), paclitaxel (NSC125973), and doxorubicin (NSC123127), were obtained from the National Cancer Institute (NCI) Developmental Therapeutics Program Chemical Repository. The FDA-approved anticancer drug set is available from the Developmental Therapeutics Program at https://dtp.cancer.gov/organization/dscb/obtaining/available plates.htm. […] The stock solutions were prepared in dimethyl sulfoxide (DMSO, Sigma-Aldrich, St. Louis, MO, cat. D2650), except for the platinum complexes which were prepared in saline (Quality Biological, Gaithersburg, MD, cat. 114-055-101), at 800-fold the tested concentration and stored at -70 degrees C prior to their use. All drugs and investigational agents were tested over a range starting from a high concentration at or near the clinical Cmax and decreasing in half-log increments. If the clinical Cmax for an agent had not been determined, the highest concentration tested was 10 microM.
Cell Culture. All cells were maintained in an incubator at 37 degrees C and 5% CO2 with 95% humidity. The PDC lines were cultured according to standard operating procedures established by the NCI PDMR. Briefly, all PDCs were thawed and cultured in Matrigel-coated flasks prepared with a working solution of 1X Ham's F-12 nutrient mix, without supplementation (Invitrogen, Waltham, MA, cat. 11765054), 100 U/mL penicillin-streptomycin (Invitrogen, cat. 15140122), and 2.5% Matrigel (Corning Inc., Corning, NY, cat. 354248) for the first three passages. The 947758-054-R-J2-PDC line was cultured in 6B/Colon 1A media, which includes advanced DMEM/F-12 (Thermo Fisher Scientific, cat. 12634028), 10 mM HEPES (Thermo Fisher Scientific, cat. 15630080), 1X GlutaMAX supplement (Thermo Fisher Scientific, cat. 35050061), 0.1 mg/mL primocin (InvivoGen, cat. ant-pm-2), 10% defined fetal bovine serum, heat inactivated (HyClone Laboratories Inc., cat. SH30070.03HI), 1.25 mM N-Acetyl-L-cysteine (Sigma-Aldrich, cat. A9165), 10 mM nicotinamide (Sigma-Aldrich, cat. N0636), 1X B-27 supplement (Thermo Fisher Scientific, cat. 17504044), 1X N-2 supplement (Thermo Fisher Scientific, cat. 17502048), and 10 microM Y-27632 dihydrochloride (Tocris Bioscience, cat. 1254). The 876862-298-R-J1-PDC was cultured in 6E media, which includes all 6B/Colon 1A media components plus 50% L-WRN conditioned media (ATCC, cat. CRL-3276), 50 ng/mL recombinant human EGF recombinant protein (hEGF; Thermo Fisher Scientific, cat. PHG0311), 10 ng/mL recombinant human fibroblast growth factor 10 (hGFG-10; PeproTech, cat. 100-26), 1 ng/mL recombinant human fibroblast growth factor 2 (hFGF-2; PeproTech, cat. 100-18B), and 1 µM prostaglandin E2 (PGE2; Tocris, cat. 2296). The 227483-062-R1-J1-PDC line was cultured in Panc media, containing all 6E components except hFGF-2, with the addition of 500 nM SB-431542 (Selleckchem, cat. S1067) and 10 nM gastrin (Tocris, cat. 3006). […]
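Note: spheroids exposed to compounds for 7 days before readout.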
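Throughout, for viability, T/C: 100% = DMSO vehicle wells with luminescence normalized to vehicle control.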

C=CC(=O)Nc1cc(Nc2nccc(-c3cn(C)c4ccccc34)n2)c(OC)cc1N(C)CCN(C)C + CN1CCN(c2cc(C(=O)Nc3cc4cc(-c5cnn(C)c5)ccc4cn3)ccn2)CC1
IC50 (second compound 0.0316 µM): > 300 nM
IC50 (second compound 0.1 µM): > 300 nM
IC50 (second compound 0.316 µM): < 0.949 nM
IC50 (second compound 1 µM): < 0.949 nM
IC50 (second compound 3.16 µM): < 0.949 nM
IC50 (second compound 10 µM): < 0.949 nM
viability, T/C (second compound 0.0316 µM, first compound 0.000949 µM): 104%
viability, T/C (second compound 0.0316 µM, first compound 0.003 µM): 95.3%
viability, T/C (second compound 0.0316 µM, first compound 0.00949 µM): 106%
viability, T/C (second compound 0.0316 µM, first compound 0.03 µM): 84.1%
viability, T/C (second compound 0.0316 µM, first compound 0.0949 µM): 90.6%
viability, T/C (second compound 0.0316 µM, first compound 0.3 µM): 83.7%
viability, T/C (second compound 0.1 µM, first compound 0.000949 µM): 97.5%
viability, T/C (second compound 0.1 µM, first compound 0.003 µM): 85.8%
viability, T/C (second compound 0.1 µM, first compound 0.00949 µM): 110%
viability, T/C (second compound 0.1 µM, first compound 0.03 µM): 89.3%
viability, T/C (second compound 0.1 µM, first compound 0.0949 µM): 97.9%
viability, T/C (second compound 0.1 µM, first compound 0.3 µM): 94.5%
viability, T/C (second compound 0.316 µM, first compound 0.000949 µM): 14.9%
viability, T/C (second compound 0.316 µM, first compound 0.003 µM): 20.3%
viability, T/C (second compound 0.316 µM, first compound 0.00949 µM): 20.1%
viability, T/C (second compound 0.316 µM, first compound 0.03 µM): 20.5%
viability, T/C (second compound 0.316 µM, first compound 0.0949 µM): 18.7%
viability, T/C (second compound 0.316 µM, first compound 0.3 µM): 18.3%
viability, T/C (second compound 1 µM, first compound 0.000949 µM): 0.2%
viability, T/C (second compound 1 µM, first compound 0.003 µM): 0.26%
viability, T/C (second compound 1 µM, first compound 0.00949 µM): 1.8%
viability, T/C (second compound 1 µM, first compound 0.03 µM): 0.2%
viability, T/C (second compound 1 µM, first compound 0.0949 µM): 0.2%
viability, T/C (second compound 1 µM, first compound 0.3 µM): 1.48%
viability, T/C (second compound 3.16 µM, first compound 0.000949 µM): 0.23%
viability, T/C (second compound 3.16 µM, first compound 0.003 µM): 0.22%
viability, T/C (second compound 3.16 µM, first compound 0.00949 µM): 1.48%
viability, T/C (second compound 3.16 µM, first compound 0.03 µM): 0.22%
viability, T/C (second compound 3.16 µM, first compound 0.0949 µM): 0.91%
viability, T/C (second compound 3.16 µM, first compound 0.3 µM): 0.82%
viability, T/C (second compound 10 µM, first compound 0.000949 µM): 0.23%
viability, T/C (second compound 10 µM, first compound 0.003 µM): 0.26%
viability, T/C (second compound 10 µM, first compound 0.00949 µM): 1.25%
viability, T/C (second compound 10 µM, first compound 0.03 µM): 1.11%
viability, T/C (second compound 10 µM, first compound 0.0949 µM): 1.9%
viability, T/C (second compound 10 µM, first compound 0.3 µM): 1.19%

CC(=O)O[C@H]1C(=O)[C@@]2(C)[C@H]([C@H](OC(=O)c3ccccc3)[C@]3(O)C[C@H](OC(=O)[C@H](O)[C@@H](NC(=O)c4ccccc4)c4ccccc4)C(C)=C1C3(C)C)[C@]1(OC(C)=O)CO[C@@H]1C[C@@H]2O + CNC(=O)c1ccc(Nc2nc(OC3CCCC3)c3c(-c4ccc5nc(C)oc5c4)c[nH]c3n2)c(OC)c1
IC50 (second compound 0.0316 µM): < 31.6 nM
IC50 (second compound 0.1 µM): < 31.6 nM
IC50 (second compound 0.316 µM): < 31.6 nM
IC50 (second compound 1 µM): < 31.6 nM
IC50 (second compound 3.16 µM): < 31.6 nM
IC50 (second compound 10 µM): < 31.6 nM
viability, T/C (second compound 0.0316 µM, first compound 0.0316 µM): 24.3%
viability, T/C (second compound 0.0316 µM, first compound 0.1 µM): 9.42%
viability, T/C (second compound 0.0316 µM, first compound 0.316 µM): 9.43%
viability, T/C (second compound 0.0316 µM, first compound 1 µM): 10%
viability, T/C (second compound 0.0316 µM, first compound 3.16 µM): 13.3%
viability, T/C (second compound 0.0316 µM, first compound 10 µM): 16.3%
viability, T/C (second compound 0.1 µM, first compound 0.0316 µM): 37.8%
viability, T/C (second compound 0.1 µM, first compound 0.1 µM): 32.8%
viability, T/C (second compound 0.1 µM, first compound 0.316 µM): 35.9%
viability, T/C (second compound 0.1 µM, first compound 1 µM): 29.6%
viability, T/C (second compound 0.1 µM, first compound 3.16 µM): 43.8%
viability, T/C (second compound 0.1 µM, first compound 10 µM): 42.9%
viability, T/C (second compound 0.316 µM, first compound 0.0316 µM): 31.6%
viability, T/C (second compound 0.316 µM, first compound 0.1 µM): 38%
viability, T/C (second compound 0.316 µM, first compound 0.316 µM): 38.3%
viability, T/C (second compound 0.316 µM, first compound 1 µM): 46.9%
viability, T/C (second compound 0.316 µM, first compound 3.16 µM): 51%
viability, T/C (second compound 0.316 µM, first compound 10 µM): 46.5%
viability, T/C (second compound 1 µM, first compound 0.0316 µM): 22.9%
viability, T/C (second compound 1 µM, first compound 0.1 µM): 30.6%
viability, T/C (second compound 1 µM, first compound 0.316 µM): 30.7%
viability, T/C (second compound 1 µM, first compound 1 µM): 41.2%
viability, T/C (second compound 1 µM, first compound 3.16 µM): 41.4%
viability, T/C (second compound 1 µM, first compound 10 µM): 36.1%
viability, T/C (second compound 3.16 µM, first compound 0.0316 µM): 24.4%
viability, T/C (second compound 3.16 µM, first compound 0.1 µM): 25.5%
viability, T/C (second compound 3.16 µM, first compound 0.316 µM): 25.1%
viability, T/C (second compound 3.16 µM, first compound 1 µM): 29.9%
viability, T/C (second compound 3.16 µM, first compound 3.16 µM): 26.6%
viability, T/C (second compound 3.16 µM, first compound 10 µM): 29%
viability, T/C (second compound 10 µM, first compound 0.0316 µM): 20.4%
viability, T/C (second compound 10 µM, first compound 0.1 µM): 22.3%
viability, T/C (second compound 10 µM, first compound 0.316 µM): 29.6%
viability, T/C (second compound 10 µM, first compound 1 µM): 28.1%
viability, T/C (second compound 10 µM, first compound 3.16 µM): 30.5%
viability, T/C (second compound 10 µM, first compound 10 µM): 27.7%
